Assay results published in PMC7181051, “Probing the Protein-Protein Interaction between the ATRXADD Domain and the Histone H3 Tail” (Molecules, 2020).
Like-named read-outs stand apart in the source and are kept apart here. Where a SMILES comes first, the peptide text is derived from it. [ ]: non-standard residue; d: D form. Lys(Me3) = C[N+](C)(C)CCCC[C@H](N)C(=O)O

Target: T1, ATRXADD (Homo sapiens, UniProt P46100)
T1 construct: The pGEX-GP-2-ATRX ADD plasmid (Addgene plasmid #59698) [17] was transformed into BL21 cells for expression and purification; GST (N, cleaved yes); peptides GenScript #59698; host or cells: E. coli BL21
T1 sequence (P46100 159-296 limits assumed): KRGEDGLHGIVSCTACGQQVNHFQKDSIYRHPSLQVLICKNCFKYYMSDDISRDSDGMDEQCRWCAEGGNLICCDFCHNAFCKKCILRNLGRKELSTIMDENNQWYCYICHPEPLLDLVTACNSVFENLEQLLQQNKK
Assay: Fluorescence polarization (FP) displacement assay
Assay type: binding
Settings: for disruption of the H3:ATRXADD PPI in the FP assay, in words: truncated and modified H3 peptides

[1] = disruption of H3_1-15K9me3-FAM (0.75 µM):ATRXADD (5 µM) PPI, PBS, highest concentration tested 100 µM, ND = no displacement, read-out: FP Assay IC50

Row | SMILES | disruption of the H3:ATRXADD PPI in the FP assay, in words | IC50 [1] | IC50
1 | C[C@H](N)C(=O)N[C@@H](CCCNC(=N)N)C(=O)N[C@H](C(=O)N[C@@H](CCCC[N+](C)(C)C)C(=O)N[C@@H](CCC(N)=O)C(=O)N[C@H](C(=O)N[C@@H](C)C(=O)N[C@@H](CCCNC(=N)N)C(=O)N[C@@H](CCCC[N+](C)(C)C)C(=O)N[C@@H](CO)C(=O)N[C@H](C(=O)O)[C@@H](C)O)[C@@H](C)O)[C@@H](C)O [H3_1-11K4me3K9me3] | significantly reduced the activity | ≥ 100 µM | 
2 | C[C@H](NC(=O)[C@@H](NC(=O)[C@H](CCC(N)=O)NC(=O)[C@H](CCCC[N+](C)(C)C)NC(=O)[C@@H](N)[C@@H](C)O)[C@@H](C)O)C(=O)N[C@@H](CCCNC(=N)N)C(=O)N[C@@H](CCCC[N+](C)(C)C)C(=O)N[C@@H](CO)C(=O)O [H3_3-10K4me3K9me3] (H-T[Lys(Me3)]QTAR[Lys(Me3)]S-OH; N-terminus and C-terminus assumed) |  | > 100 µM | 
3 | C[C@H](N)C(=O)N[C@@H](CCCNC(=N)N)C(=O)N[C@H](C(=O)N[C@@H](CCCC[N+](C)(C)C)C(=O)N[C@@H](CCC(N)=O)C(=O)N[C@H](C(=O)N[C@@H](C)C(=O)O)[C@@H](C)O)[C@@H](C)O [Peptide H3_1-7K4me3] (H-ART[Lys(Me3)]QTA-OH) |  |  | > 100 µM
4 | C[C@@H](O)[C@H](NC(=O)[C@H](CCC(N)=O)NC(=O)[C@H](CCCCN)NC(=O)[C@@H](NC(=O)[C@@H](N)CCCNC(=N)N)[C@@H](C)O)C(=O)O [Peptide H3_2-6] (H-RTKQT-OH; N-terminus and C-terminus assumed) | inactive |  | > 100 µM
5 | C[C@@H](O)[C@H](N)C(=O)N[C@@H](CCCCN)C(=O)N[C@@H](CCC(N)=O)C(=O)O [Peptide H3_3-5] (H-Thr-Lys-Gln-OH; N-terminus and C-terminus assumed) | inactive | > 100 µM | 
6 | C[C@H](NC(=O)[C@@H](NC(=O)[C@H](CCC(N)=O)NC(=O)[C@H](CCCCN)NC(=O)[C@@H](N)[C@@H](C)O)[C@@H](C)O)C(=O)N[C@@H](CCCNC(=N)N)C(=O)O [Peptide H3_3-8] (H-TKQTAR-OH; N-terminus and C-terminus assumed) | inactive |  | > 100 µM
7 | C[C@H](NC(=O)[C@@H](NC(=O)[C@H](CCC(N)=O)NC(=O)[C@H](CCCCN)NC(=O)[C@@H](N)[C@@H](C)O)[C@@H](C)O)C(=O)N[C@@H](CCCNC(=N)N)C(=O)N[C@@H](CCCC[N+](C)(C)C)C(=O)N[C@@H](CO)C(=O)N[C@H](C(=O)O)[C@@H](C)O [Peptide H3_3-11K9me3] (H-TKQTAR[Lys(Me3)]ST-OH; N-terminus and C-terminus assumed) | completely abolished activity | > 100 µM | 
8 | C[C@H](N)C(=O)N[C@@H](CCCNC(=N)N)C(=O)N[C@@H](CCCC[N+](C)(C)C)C(=O)N[C@@H](CO)C(=O)N[C@H](C(=O)O)[C@@H](C)O [Peptide H3_7-11K9me3] (H-AR[Lys(Me3)]ST-OH; N-terminus and C-terminus assumed) | inactive |  | > 100 µM
